From US20250205235A1, “DOSE REGIMEN FOR VERICIGUAT” (ADVERIO PHARMA GMBH, priority 2023, published 2025)

Key:
[1] = some patients receiving vericiguat in clinical trials; cited from earlier work
[2] = system: participants with chronic heart failure with reduced ejection fraction; assay: Phase 2b open-label clinical study of tolerability and safety of a 5 mg initiation dose of vericiguat (NCT06195930)
Protocol: A Phase 2b open-label clinical study to evaluate the tolerability and safety of an initiation dose of 5 mg of Vericiguat in participants with chronic heart failure with reduced ejection fraction.
The patients had symptomatic chronic heart failure with reduced ejection fraction (HFrEF). […] Participants underwent a screening visit to assess eligibility. Eligible participants waited a mandatory 2 weeks before returning for Visit 1 in order to be clinically and hemodynamically stable. At Visit 1 (V1), participants received vericiguat with directions to take a 5 mg tablet once daily for 2 weeks. Participants returned for Visit 2 (V2) after 2 weeks of treatment. There were unplanned healthcare visits for heart failure between Visits 1 and 2 at the discretion of the investigator.
Primary objective was to evaluate the tolerability of 5 mg as a starting dose of vericiguat. Endpoint: Treatment tolerability, defined as the completion of the two-week 5 mg dose without discontinuation of study intervention and without moderate to severe symptomatic hypotension between Visit 1 (V1) and Visit 2 (V2) Secondary objective 1 was to describe safety events of initiation of 5 mg dose. Endpoints: Any adverse event reported between V1 and V2. Absence of adverse events related to study intervention between V1 and V2.
Secondary objective 2 was to further evaluate the tolerability of 5 mg as a starting dose of vericiguat. Endpoint: Continuous intake of study intervention between V1 and V2 or restart of study intervention after any temporary interruption.
Dose changes in GDMT medications (RAS blockade, Beta-blocker, MRA, or SGLT2i) or oral diuretics for 2 weeks were discouraged, except when mandated by known side-effects for individual drug classes (e.g., hyperkalemia for MRA or angioedema for ACE-inhibitors/ARNI). Use of short and long-acting nitrates was permitted.
On Days 1-14, 5.0 mg Verquvo® vericiguat was administered orally once daily. The endpoint was tolerability based on need for treatment interruption between Days 1 and Day 14.

[3] = 106 started treatment, 5 mg once daily for 2 weeks

SMILES: COC(=O)Nc1c(N)nc(-c2nn(Cc3ccccc3F)c3ncc(F)cc23)nc1N [Vericiguat, methyl {4,6-diamino-2-[5-fluoro-1-(2-fluorobenzyl)-1H-pyrazolo[3,4-b]pyridin-3-yl]pyrimidin-5-yl}carbamate]
- Effect on systolic blood pressure compared with placebo [1]: reduction of systolic blood pressure
- Difference between participants with and without recent worsening heart failure events in meeting primary and secondary endpoints ([2]; 5 mg dose, 2 weeks): no major differences
- Primary endpoint: participants who completed the 2-week treatment period without moderate to severe symptomatic hypotension and without temporary treatment interruptions exceeding 1 day ([2]; 5 mg dose, 2 weeks): 93.4%
- Secondary endpoint 1: participants who completed the 2-week treatment period without reported intervention-related adverse events ([2]; 5 mg dose, 2 weeks): 90.6%
- Secondary endpoint 2: participants who completed treatment with continuous intervention intake or restarted study intervention after a temporary interruption ([2]; 5 mg dose, 2 weeks): 96.2%
- patients who continued through the 14-day titration without a medical need for interruption ([2]; 5.0 mg orally once daily, Days 1-14): at least 90%
- TREATMENT phase: Completed [2, 3]: 102 (96.2%) Number of participants (%)
- TREATMENT phase: Did not complete [2, 3]: 4 (3.8%) Number of participants (%)
- Tolerability of initiating treatment at 5 mg (in words) ([2]; HFrEF population with and without recent worsening heart failure events, on current GDMT): well tolerated
- discontinuations for AE ([2]; OVERALL N = 106, SAF, 5 mg once daily, two weeks): 4 discontinuations
- Any AE ([2]; SAF N = 106, 5 mg): 14 (13.2%) Number (%) of participants
- Any AE leading to discontinuation of intervention ([2]; SAF N = 106, 5 mg): 4 (3.8%) Number (%) of participants
- Any AE leading to dose modification of study intervention (delays, interruptions and reductions) ([2]; SAF N = 106, 5 mg): 6 (5.7%) Number (%) of participants
- Any AE of special interest ([2]; SAF N = 106, 5 mg): 6 (5.7%) Number (%) of participants
- Any AE related to procedures required by the protocol ([2]; SAF N = 106, 5 mg): 0 Number (%) of participants
- Any SAE ([2]; SAF N = 106, 5 mg): 1 (0.9%) Number (%) of participants
- Any SAE leading to discontinuation of intervention ([2]; SAF N = 106, 5 mg): 0 Number (%) of participants
- Any SAE related to procedures required by the protocol ([2]; SAF N = 106, 5 mg): 0 Number (%) of participants
- Any intervention-related AE ([2]; SAF N = 106, 5 mg): 10 (9.4%) Number (%) of participants
- Any intervention-related SAE ([2]; SAF N = 106, 5 mg): 0 Number (%) of participants
- Life-threatening SAE ([2]; SAF N = 106, 5 mg): 0 Number (%) of participants
- Maximum intensity for any AE: MILD ([2]; SAF N = 106, 5 mg): 9 (8.5%) Number (%) of participants
- Maximum intensity for any AE: MODERATE ([2]; SAF N = 106, 5 mg): 4 (3.8%) Number (%) of participants
- Maximum intensity for any AE: SEVERE ([2]; SAF N = 106, 5 mg): 1 (0.9%) Number (%) of participants
- Maximum intensity for intervention-related AEs: MILD ([2]; SAF N = 106, 5 mg): 8 (7.5%) Number (%) of participants
- Maximum intensity for intervention-related AEs: MODERATE ([2]; SAF N = 106, 5 mg): 2 (1.9%) Number (%) of participants
- Participants with total duration of interruption/delay of 0 days ([2]; SAF N = 106, 5 mg): 102 (96.2%) n (%)
- Participants with total duration of interruption/delay of 1 day ([2]; SAF N = 106, 5 mg): 1 (0.9%) n (%)
- Participants with total duration of interruption/delay of 2 days ([2]; SAF N = 106, 5 mg): 3 (2.8%) n (%)
- SAE requiring hospitalization ([2]; SAF N = 106, 5 mg): 1 (0.9%) Number (%) of participants
- SAE resulting in substantial disruption of normal life functions ([2]; SAF N = 106, 5 mg): 0 Number (%) of participants
- SAE with fatal outcome ([2]; SAF N = 106, 5 mg): 0 Number (%) of participants
- SAE: Congenital anomaly or birth defect ([2]; SAF N = 106, 5 mg): 0 Number (%) of participants
- SAE: Other ([2]; SAF N = 106, 5 mg): 0 Number (%) of participants
- Total Duration of Interruption/Delay, Max ([2]; SAF N = 106, 5 mg): 2 days
- Total Duration of Interruption/Delay, Mean (SD) ([2]; SAF N = 106, 5 mg): 0.1 (0.3) ^ days
- Total Duration of Interruption/Delay, Median ([2]; SAF N = 106, 5 mg): 0.0 days
- Total Duration of Interruption/Delay, Min ([2]; SAF N = 106, 5 mg): 0 days
- TREATMENT phase: Did not complete, primary reason ADVERSE EVENT ([2]; percentage of the participants who did not complete): 4 (100.0%) Number of participants (%)
